From patent US20230052740A1, “MODULATORS OF CIRCADIAN RHYTHMS AND USES THEREOF” (The Regents of the University of California, priority 2019, published 2023) come the findings set out here.

Assay [1] deals with T1, hMT1 (Homo sapiens, UniProt P48039). The assay can be described thus: cAMP assay (GloSensor), isoproterenol-stimulated cAMP in HEK cells. The assay is classed as cell-based. Also noted: expressed in transfected cells; host or cells: HEK-T (HEK-293 T) cells, co-transfected with GloSensor DNA. To be noted: for Emax: read-out: MT1 % Emax (converted). Here is the method:
HEK-293 T cells were maintained with complete Dulbecco's modified Eagle's medium (DMEM), which is composed of 10% fetal bovine serum (FBS), 2 mM L-glutamine, 100 units/ml penicillin G, 100 μg/ml streptomycin at 37° C. in the presence of 5% CO2
(§1) MT1 and MT2 receptors were tested using Promega's spilt luciferase based GboSensor cAMP biosensor technology. HEK-T cells were plated in 15 cm cell culture dish (at a density of 18 million cells) containing DMEM composed of 10% dialyzed FBS, 2 mM L-glutamine, 100 units/ml penicillin G, 100 μg/ml streptomycin for 4-6 hour. Then, cells were co-transfected with 8 μg of construct which encodes either MT1 or MT2 (de-Tangonized constructs) and […] of Glosensor DNA. Next day, transfected cells were seeded into poly-L-lysinecoated 384-well white clear bottom cell culture plates with complete DMEM with 1% dialized FBS at a density of 20,000 cells per well for another 24 h. The next day, cell medium were discarded and loaded with 20 μl of assay buffer (1×HBSS, 20 mM HEPES, pH 7.4, 0.1% BSA). To measure agonist activity of MT1 or MT2 receptor, 10 μl of test compound solution at 3× final concentration was added for 15 minutes followed by addition of 10 μl of luciferin/isoproterenol mixture (at a final concentration of 4 mM and 200 nM respectively) for another 15 mins for luminescence quantification. Then, plates were counted using SpectraMax luminescence reader (Molecular Device). Data were analyzed using GraphPad Prism 6.0.
On the technique in general: cAMP levels reflect the balance of adenylyl cyclase and phosphodiesterase activity.

Assay [2] has as its target T2, MT2 (Homo sapiens, UniProt P49286).
T2 sequence (P49286 1-362): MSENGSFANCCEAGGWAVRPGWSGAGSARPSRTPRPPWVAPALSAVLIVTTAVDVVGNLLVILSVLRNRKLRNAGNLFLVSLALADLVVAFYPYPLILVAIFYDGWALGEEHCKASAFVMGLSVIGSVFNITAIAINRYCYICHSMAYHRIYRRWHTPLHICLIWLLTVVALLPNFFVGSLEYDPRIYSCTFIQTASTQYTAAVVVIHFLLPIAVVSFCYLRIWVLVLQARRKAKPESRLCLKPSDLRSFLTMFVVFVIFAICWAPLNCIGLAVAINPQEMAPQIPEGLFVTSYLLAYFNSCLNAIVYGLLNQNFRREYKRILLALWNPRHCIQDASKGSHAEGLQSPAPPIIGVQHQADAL
Described as above. The assay is classed as cell-based. Set-up: expressed in transfected cells; host or cells: HEK-T (HEK-293 T) cells, co-transfected with GloSensor DNA; MT2 activity: dose or concentration left out as unconfirmed. To be noted: for Emax: read-out: MT2 % Emax (converted); for MT2 pEC50: Table 2. Here is the method: as §1, with “Next day, transfected cells were seeded into poly-L-lysinecoated 384-well white clear bottom cell culture plates with complete DMEM with 1% dialized FBS at a density of 20,000 cells per well for another 24 h.” left out

Assay [3] concerns the target T2, MT2. As to the kind of experiment: Ligand bias quantification (G protein vs β-arrestin pathway, melatonin as reference). As to conditions: at MT2; bias factor 10^ΔΔLog(Emax/EC50). Type of assay: cell-based. Set-up: expressed in transfected cells; host or cells: HEK-T cells (Gi/cAMP arm) and HTLA cells (β-arrestin Tango arm).
In the next assay the test system is C3H/HeN mice. As to the kind of experiment: Re-entrainment of running wheel activity after 6 h advance of dark onset (jet-lag model). Type of assay: in vivo. As to conditions: 30 μg/mouse s.c., 3 days, WT; in words. The text has this:
Male and female C3H/HeN (C3H) wild-type (WT), MT1 knockout (MT1KO), and MT2 knockout (MT2KO) mice (average 6.28 months) used in this study were raised in our breeding colony at University at Buffalo. […] Genotype was confirmed using tail samples at the end of each experiment and was verified periodically during the tenure of the colony. The strains of mice in our breeding colony were re-derived periodically by backcrossing with WT mice to reduce genetic drift.
Mice were group housed (3-5 per cage) with corncob bedding in polycarbonate translucent cages (30×19 cm) and maintained in a 14/10 light-dark (LD) cycle (Zeitgeber time 0 or ZT0 corresponds to Lights ON and ZT 14 to Lights OFF) in temperature and humidity controlled rooms with ad libitum access to food and water in the Laboratory Animal Facility at the University at Buffalo. Light levels were 200-300 lux at the level of the cage. Treatments and animal care performed in the dark were under a dim red safelight (15 watts, Kodak 1A filter) with illuminance of less than 3-5 lux (Benloucif, S. & Dubocovich, M. L. J Biol Rhythms 11, 113-125, (1996). All experimental procedures using mice were conducted in accordance with guidelines set forth by the National Institutes of Health and approved by the University at Buffalo Institutional Animal Care and Use Committee.
Circadian rhythm phase was determined for each mouse using the onset of running wheel activity defined as CT12 (Circadian Time 12). Running wheel activity was measured continuously via magnetic microswitches detecting wheel revolutions with a computer equipped with Clocklab data collection Software™ (Actimetrics: Wilmette, Ill.). All actigraphy data was visualized and analyzed using ClockLab™ and MATLAB™ software. All mice were individually housed in cages (33×15 cm) equipped with running wheels in light-tight ventilated cabinets with controlled temperature and LD cycles (Phenome Technologies: Skokie, Ill.). Male and female mice were housed in separate cabinets for all experiments.
Male and female C3H WT, MT1KO, and MT2KO mice (3 to 6 months) were maintained under a 12:12 LD cycle for at least 2 weeks prior experimental manipulations to allow stable entrainment to dark onset before advance of the LD cycle. Actigraphy data was recorded as described above and all experiment protocols performed as described (Dubocovich, M. L. et al., J Pineal Res 39, 113-120, 2005). On the first day of treatment, the dark onset was advanced 6 h. […] Post treatment, mice were given 14-20 days to re-entrain running wheel activity onsets to the new dark onset. Using exported running wheel activity onsets from actograms, onset hours advanced each day were determined by subtracting this value each day from the average onset of running wheel activity for 3 days prior to treatment for each mouse. Further, using the data from this calculation combined with visualization of actograms, the number of days to reach stable re-entrainment was determined for each mouse.
All statistical analyses as described in further detail for each experiment were conducted using GraphPad Prism 8™ (La Jolla, Calif.). All data sets were visualized for normality using QQ plots of predicted vs. actual residuals. Actigraphy data was generated for visualization blind to treatment prior to the quantification and statistical analysis stages. […] Data in FIGS. 4F & 4G were compared via a two-way ANOVA (3×2: genotype x treatment) with Tukey's post hoc analyses (P<0.05). […]

Assay [4] addresses T1, hMT1. As to the kind of experiment: 2-[125I]-iodomelatonin competition binding, CHO cell membranes. As to conditions: CHO-hMT1; affinity shift by G protein inactivation.
Description: For receptor binding studies, '7447 was dissolved in 50% DMSO/50% ethanol for 13 mM stock solution, diluted 1/10 in 100% ethanol then 1/10 again in 50% ethanol/50% Tris-HCl buffer. Both '3384 and '4226 were dissolved in 100% ethanol for 13 mM stock solutions and then diluted 1/10 in 50% ethanol/50% Tris-HCl buffer. Further dilutions were done in Tris-HCl buffer.
Assays were incubated for 1 hour at 25° C. Bound radioligand was separated from freeby rapidvacuum filtration using glass microfiber filters (Whatman, Krackeler Scientific, Inc., Albany N.Y., USA) saturated in 0.5% polyethylenimine solution.
Affinity shifts or lack thereof with G protein inactivation indicate apparent efficacy (Lefkowitz, R. J. et al., J Biol Chem 251, 4686-4692, 1976) as ligands are classified as agonists (ΔpKi% MLT>20%), antagonists (ΔpKi% MLT<20%, >−20%), or inverse agonists (ΔpKi% MLT<−20%) accordingly.
Setting [5] is: HEK293, Table 1, agonist, normalized to melatonin response.
Setting [6] is: HEK293, Table 2, agonist, normalized to melatonin response.
Where [7] appears, read: Table 1, agonist, normalized to melatonin response.

Where two headings read alike, the source gives them in different places.

T1 sequence (P48039 whole entry): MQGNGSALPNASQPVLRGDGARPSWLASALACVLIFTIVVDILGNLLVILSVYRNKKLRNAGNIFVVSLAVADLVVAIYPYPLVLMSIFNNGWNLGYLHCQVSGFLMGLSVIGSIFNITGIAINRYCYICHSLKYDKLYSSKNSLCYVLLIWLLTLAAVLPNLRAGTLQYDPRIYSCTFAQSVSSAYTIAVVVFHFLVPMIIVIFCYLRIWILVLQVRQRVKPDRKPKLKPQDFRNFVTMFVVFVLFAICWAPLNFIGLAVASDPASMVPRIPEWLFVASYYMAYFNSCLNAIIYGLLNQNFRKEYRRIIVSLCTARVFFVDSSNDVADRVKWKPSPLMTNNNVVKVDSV

For orientation: Emax means the size of the effect at its maximum, as opposed to the concentration needed. By EC50 is commonly meant the concentration needed to bring the measured effect to its halfway point. `COc1ccc2c(c1)N(Cc1ccc(C#N)c(OC)c1)CCO2` [ZINC442850041]: the Emax was 99% at hMT1 [1] (setting [5]) and 97% at MT2 [2] (setting [5]). The “MT1 pEC50” value at hMT1 [1] (Table 1, agonist) worked out at 7.91 ± 0.04. In addition, on MT2 [2], the “selectivity for the MT2 receptor” value was 25 fold. In addition, on MT2 [2] (agonist, read-out: EC50 at MT2), the 50% effective concentration (EC50) was 0.47 nM. This molecule displayed a Bias on MT2 [3] of 0.046.
Turning to `COc1ccc2[nH]cc(CCNC(C)=O)c2c1` [Melatonin, reference compound], the “rate of re-entrainment to the new light-dark cycle” value with C3H/HeN mice is listed as “accelerated re-entrainment”. The “ΔpKi (pKi control − pKi inactive)” value at hMT1 [4] was 1.19.
Turning to `COc1ccc2c(c1)N(Cc1ccn(C)c(=O)c1)CCO2` [ZINC608506688], the Emax on hMT1 [1] (setting [6]) is 99%; at MT2 [2] (setting [6]), 89%. Also, the “MT1 pEC50” value on hMT1 [1] (Table 2, agonist) turned out to be 9.78 ± 0.13. Besides, the “MT2 pEC50” value at MT2 [2] (agonist) is 8.60 ± 0.10. The Bias at MT2 [3] worked out at 8.2.
On to `COc1ccc(CNc2cccnc2)cc1` [ZINC5586789], for which the Emax on hMT1 [1] (setting [6]) is 37%; on MT2 [2] (setting [6]) it was 51%. Besides, the “MT1 pEC50” value at hMT1 [1] (Table 2, agonist) is on record as 6.81 ± 0.72. Moreover, the “MT2 pEC50” value on MT2 [2] (agonist) amounted to 8.07 ± 0.15.
Turning to `COc1ccc(CNc2cccc(-n3nccn3)c2)cc1` [ZINC864032792], the Emax at hMT1 [1] (setting [6]) was 57%; on MT2 [2] (HEK293, Table 2, cell marked Inverse (inverse agonist)), 35%. Moreover, on hMT1 [1] (Table 2, agonist), the “MT1 pEC50” value was 7.49 ± 0.04. Further, the “MT2 pEC50” value on MT2 [2] (cell marked Inverse (inverse agonist)) was 6.66 ± 0.08.
One may read the pEC50 as −log10 of the EC50, conventionally taken in molar units. As for `COC(=O)c1ccc(CSc2nnc(C3CC3)[nH]2)s1` [ZINC159050207], the “selectivity for the MT1 v. the MT2 receptor type” value on hMT1 [1] is on record as 2 fold. On hMT1 [1] (setting [7]), the “MT1 % Emax” value is reported as 99 ± 1%. For the same molecule, at hMT1 [1] (agonist), the “Emax(%) at MT1” value is listed as 99±1% and the “pEC50 at MT1” value is recorded as 9.00±0.15. The “MT2 % Emax” value on MT2 [2] (setting [7]) was found to be 83 ± 3%.
For the molecule `COc1cccc2c1CCN(C(=O)c1ccc(F)nc1)C2` [ZINC182731037], the Emax on hMT1 [1] (setting [5]) is 82%. For the same molecule, the “MT1 pEC50” value on hMT1 [1] (Table 1, agonist) is recorded as 5.30 ± 0.09. Further, the EC50 at hMT1 [1] (agonist, read-out: EC50 at MT1) was 2000 to 6000 nM. Besides, the MT2 activity entry on MT2 [2] is “without detectable MT2 activity”.
`COc1ccc(CN(C(=O)c2scc(C)c2Cl)c2ccncc2)cc1` [ZINC485552623]: the MT1 activity entry at hMT1 [1] (FIG. 7D, in words) was “without detectable MT1 activity”. For the same molecule, the Emax at MT2 [2] (setting [6]) was 107%. Further, the “MT2 pEC50” value on MT2 [2] (agonist) is 5.80 ± 0.06.
Turning to `COc1ccc(CNc2cccnc2C)cc1C` [ZINC91496083], the values for the Emax on hMT1 [1] (setting [6]) and at MT2 [2] (setting [6]) were 66% and 106%, respectively. In addition, the “MT1 pEC50” value at hMT1 [1] (Table 2, agonist) was determined as 4.65 ± 0.44. In addition, the “MT2 pEC50” value at MT2 [2] (agonist) was 7.15 ± 0.17.
